Data on two compounds can be found in patent publication US9546144B2, “Bifunctional compounds” (University of Pittsburgh—of the Commonwealth System of …, priority 2011, dated 2017).

This series is described as follows: physchem. As to conditions: aqueous buffer, kinetic from dmso stock.

≈ marks a conversion by molar mass, not a printed value.

Method: General procedure for kinetic solubility measurements. A polypropylene tube was charged with PBS solution (490 μL). To the buffer was added a 10 mM stock solution of compound (10 μL). The tube was vortexed and equilibrated on an end-over-end rotator for 15 min at rt. Aliquots (400 μL) were filtered through 0.45 μm syringe filters and diluted to 5.0 mL with absolute MeOH. Concentrations were determined by UV/VIS analysis.
The test compounds were prepared at concentrations of 10 mM and added to the buffer at room temperature such that cosolvent concentration was fixed at 2%.

Regarding `COC(=O)Nc1nc2ccccc2[nH]1` [compound 10, carbendazim], the solubility (kinetic) at 15 min is 140 ± 13 µM (≈ 26.8 µg/mL). As for `COC1=CC(=O)C[C@@H](C)[C@]12Oc1c(Cl)c(OC)cc(OC)c1C2=O` [compound 11, griseofulvin], the figure is 180 ± 13 µM (≈ 63.5 µg/mL).
